Test results from article PMC10945555, “Improving Activity of New Arylurea Agents against Multidrug-Resistant and Biofilm-Producing Staphylococcus epidermidis” (ACS Medicinal Chemistry Letters, 2024).
≈ marks a conversion by molar mass, not a printed value. Where two headings read alike, the source gives them in different places.

Experiments:
Assay type in all cases: cell-based
[1] = system: clinical MDR Staphylococcus epidermidis isolates; experiment: MIC, broth microdilution, 81 clinical MDR strains; settings: Staphylococcus epidermidis
Protocol: (§1) 2 Biological assay protocols
(§2) Microbiological tests were carried out under aseptic conditions in a laminar chamber of the 2nd […]
(§3) (BioTectum 1.2, Alchem Poland). The assessment of antimicrobial activity was carried out for final compounds in the form of free bases, soluble in DMSO (Merck, Germany), at the initial […]
(§4) concentration of 1 mg/mL. […]
were provided by Cayman Chemical, USA. […]
The antibacterial activity of selected compounds was also tested on a panel of 81 unrelated, multidrug -resistant clinical strains of Staphylococcus epidermidis from the own collection of the Department of Pharmaceutical Microbiology of the Jagiellonian University Medical College.
(§5) 2.2 Effect of evaluated compounds on planktonic cells
(§6) The susceptibility of three reference bacterial strains (Staphylococcus epidermidis ATCC […]
(§7) Table S1) and 81 clinical MDR S. epidermidis (Table S2) to the tested compounds was assessed by determining the MIC value (Minimal Inhibitory Concentration) by microdilution in a liquid medium in 96-well flat-bottom cell culture plates (Nest Biotechnology Scientific, USA). The antibacterial properties of the compo unds were tested in the concentration range from 50 µg/mL to 0.1 µg/mL by making a series of double dilutions of the compound in liquid Mueller -Hinton II Broth Cation Adjusted (MHB II, BBL TM, USA) according to the European Committee on […]
(§8) Antimicrobial Susceptibility Testing guidelines (EUCAST).2,3 The determinations were performed twice. The MIC50 and MIC90 values were determined for each of the tested

[2] = system: Staphylococcus aureus ATCC BAA-976; experiment: MIC, broth microdilution, MDR/BPSA reference strain; settings: ATCCBAA976; Staphylococcus aureus ATCC BAA-976; read-out: MIC MDR/BPSA
Excerpt: (§9) These strains included susceptible, multidrug-resistant, and biofilm-producing strains of S. epidermidis and S. aureus (MSSE, MDR/BPSE, and MDR/BPSA, respectively). The cornerstone antibiotic linezolid served as a positive control (Table 1). The impact of structural modifications at the aryloxy fragment and the aromatic moiety bound to the propyl linker on the inhibitory activity was initially investigated. […] Further optimization focused on evaluating the impact of the type of substituent and its position on the arylsulfonamide fragment’s activity.
as §1, §2, §3, §4
(§10) were provided by Cayman Chemical, USA.
(§11) The activity of all newly synthesized compounds was tested in vitro on a panel of selected reference strains from the American Type Culture Collection (ATCC) of Gram-positive […]
as §5, §6, §7, §8

[3] = system: Staphylococcus epidermidis ATCC 35984; experiment: MIC, broth microdilution, MDR/BPSE reference strain; settings: Staphylococcus epidermidis, ATCC35984, read-out: MIC MDR/BPSE, Staphylococcus epidermidis ATCC 35984
Excerpt: as §9, §1, §2, §3, §4, §10, §11, §5, §6, §7, §8

## CC(=O)NC[C@H]1CN(c2ccc(N3CCOCC3)c(F)c2)C(=O)O1 [linezolid, reference compound]
[1]; clinical strain 1 (Table S2), read-out: MIC
  MIC: 1.6 µg/mL (≈ 4.74 µM)
[1]; clinical strain 2 (Table S2), read-out: MIC
  MIC: 1.6 µg/mL (≈ 4.74 µM)
[1]; clinical strain 3 (Table S2), read-out: MIC
  MIC: 1.6 µg/mL (≈ 4.74 µM)
[1]; clinical strain 4 (Table S2), read-out: MIC
  MIC: 1.6 µg/mL (≈ 4.74 µM)
[1]; clinical strain 5 (Table S2), read-out: MIC
  MIC: 1.6 µg/mL (≈ 4.74 µM)
[1]; clinical strain 6 (Table S2), read-out: MIC
  MIC: 1.6 µg/mL (≈ 4.74 µM)
[1]; clinical strain 7 (Table S2), read-out: MIC
  MIC: 1.6 µg/mL (≈ 4.74 µM)
[1]; clinical strain 8 (Table S2), read-out: MIC
  MIC: 1.6 µg/mL (≈ 4.74 µM)
[1]; clinical strain 9 (Table S2), read-out: MIC
  MIC: 1.6 µg/mL (≈ 4.74 µM)
[1]; clinical strain 10 (Table S2), read-out: MIC
  MIC: 1.6 µg/mL (≈ 4.74 µM)
[1]; clinical strain 11 (Table S2), read-out: MIC
  MIC: 1.6 µg/mL (≈ 4.74 µM)
[1]; clinical strain 12 (Table S2), read-out: MIC
  MIC: 0.8 µg/mL (≈ 2.37 µM)
[1]; clinical strain 13 (Table S2), read-out: MIC
  MIC: 1.6 µg/mL (≈ 4.74 µM)
[1]; clinical strain 14 (Table S2), read-out: MIC
  MIC: 1.6 µg/mL (≈ 4.74 µM)
[1]; clinical strain 15 (Table S2), read-out: MIC
  MIC: 1.6 µg/mL (≈ 4.74 µM)
[1]; clinical strain 16 (Table S2), read-out: MIC
  MIC: 1.6 µg/mL (≈ 4.74 µM)
[1]; clinical strain 17 (Table S2), read-out: MIC
  MIC: 0.8 µg/mL (≈ 2.37 µM)
[1]; clinical strain 18 (Table S2), read-out: MIC
  MIC: 0.8 µg/mL (≈ 2.37 µM)
[1]; clinical strain 19 (Table S2), read-out: MIC
  MIC: 1.6 µg/mL (≈ 4.74 µM)
[1]; clinical strain 20 (Table S2), read-out: MIC
  MIC: 1.6 µg/mL (≈ 4.74 µM)
[1]; clinical strain 21 (Table S2), read-out: MIC
  MIC: 1.6 µg/mL (≈ 4.74 µM)
[1]; clinical strain 22 (Table S2), read-out: MIC
  MIC: 1.6 µg/mL (≈ 4.74 µM)
[1]; clinical strain 23 (Table S2), read-out: MIC
  MIC: 1.6 µg/mL (≈ 4.74 µM)
[1]; clinical strain 24 (Table S2), read-out: MIC
  MIC: 1.6 µg/mL (≈ 4.74 µM)
[1]; clinical strain 25 (Table S2), read-out: MIC
  MIC: 1.6 µg/mL (≈ 4.74 µM)
[1]; clinical strain 26 (Table S2), read-out: MIC
  MIC: 0.8 µg/mL (≈ 2.37 µM)
[1]; clinical strain 27 (Table S2), read-out: MIC
  MIC: 1.6 µg/mL (≈ 4.74 µM)
[1]; clinical strain 28 (Table S2), read-out: MIC
  MIC: 1.6 µg/mL (≈ 4.74 µM)
[1]; clinical strain 29 (Table S2), read-out: MIC
  MIC: 0.8 µg/mL (≈ 2.37 µM)
[1]; clinical strain 30 (Table S2), read-out: MIC
  MIC: 1.6 µg/mL (≈ 4.74 µM)
[1]; clinical strain 31 (Table S2), read-out: MIC
  MIC: 1.6 µg/mL (≈ 4.74 µM)
[1]; clinical strain 32 (Table S2), read-out: MIC
  MIC: 1.6 µg/mL (≈ 4.74 µM)
[1]; clinical strain 33 (Table S2), read-out: MIC
  MIC: 0.8 µg/mL (≈ 2.37 µM)
[1]; clinical strain 34 (Table S2), read-out: MIC
  MIC: 1.6 µg/mL (≈ 4.74 µM)
[1]; clinical strain 35 (Table S2), read-out: MIC
  MIC: 1.6 µg/mL (≈ 4.74 µM)
[1]; clinical strain 36 (Table S2), read-out: MIC
  MIC: 0.8 µg/mL (≈ 2.37 µM)
[1]; clinical strain 37 (Table S2), read-out: MIC
  MIC: 0.8 µg/mL (≈ 2.37 µM)
[1]; clinical strain 38 (Table S2), read-out: MIC
  MIC: 0.8 µg/mL (≈ 2.37 µM)
[1]; clinical strain 39 (Table S2), read-out: MIC
  MIC: 0.8 µg/mL (≈ 2.37 µM)
[1]; clinical strain 40 (Table S2), read-out: MIC
  MIC: 0.4 µg/mL (≈ 1.19 µM)
[1]; clinical strain 41 (Table S2), read-out: MIC
  MIC: 0.8 µg/mL (≈ 2.37 µM)
[1]; clinical strain 42 (Table S2), read-out: MIC
  MIC: 1.6 µg/mL (≈ 4.74 µM)
[1]; clinical strain 43 (Table S2), read-out: MIC
  MIC: 0.8 µg/mL (≈ 2.37 µM)
[1]; clinical strain 44 (Table S2), read-out: MIC
  MIC: 1.6 µg/mL (≈ 4.74 µM)
[1]; clinical strain 45 (Table S2), read-out: MIC
  MIC: 0.8 µg/mL (≈ 2.37 µM)
[1]; clinical strain 46 (Table S2), read-out: MIC
  MIC: 1.6 µg/mL (≈ 4.74 µM)
[1]; clinical strain 47 (Table S2), read-out: MIC
  MIC: 0.8 µg/mL (≈ 2.37 µM)
[1]; clinical strain 48 (Table S2), read-out: MIC
  MIC: 3.12 µg/mL (≈ 9.26 µM)
[1]; clinical strain 49 (Table S2), read-out: MIC
  MIC: 0.2 µg/mL (≈ 0.593 µM)
[1]; clinical strain 50 (Table S2), read-out: MIC
  MIC: 0.2 µg/mL (≈ 0.593 µM)
[1]; clinical strain 51 (Table S2), read-out: MIC
  MIC: 0.2 µg/mL (≈ 0.593 µM)
[1]; clinical strain 52 (Table S2), read-out: MIC
  MIC: 0.4 µg/mL (≈ 1.19 µM)
[1]; clinical strain 53 (Table S2), read-out: MIC
  MIC: 0.4 µg/mL (≈ 1.19 µM)
[1]; clinical strain 54 (Table S2), read-out: MIC
  MIC: 0.8 µg/mL (≈ 2.37 µM)
[1]; clinical strain 55 (Table S2), read-out: MIC
  MIC: 0.8 µg/mL (≈ 2.37 µM)
[1]; clinical strain 56 (Table S2), read-out: MIC
  MIC: 0.8 µg/mL (≈ 2.37 µM)
[1]; clinical strain 57 (Table S2), read-out: MIC
  MIC: 0.8 µg/mL (≈ 2.37 µM)
[1]; clinical strain 58 (Table S2), read-out: MIC
  MIC: 0.8 µg/mL (≈ 2.37 µM)
[1]; clinical strain 59 (Table S2), read-out: MIC
  MIC: 0.8 µg/mL (≈ 2.37 µM)
[1]; clinical strain 60 (Table S2), read-out: MIC
  MIC: 0.8 µg/mL (≈ 2.37 µM)
[1]; clinical strain 61 (Table S2), read-out: MIC
  MIC: 0.8 µg/mL (≈ 2.37 µM)
[1]; clinical strain 62 (Table S2), read-out: MIC
  MIC: 0.8 µg/mL (≈ 2.37 µM)
[1]; clinical strain 63 (Table S2), read-out: MIC
  MIC: 0.8 µg/mL (≈ 2.37 µM)
[1]; clinical strain 64 (Table S2), read-out: MIC
  MIC: 0.8 µg/mL (≈ 2.37 µM)
[1]; clinical strain 65 (Table S2), read-out: MIC
  MIC: 0.8 µg/mL (≈ 2.37 µM)
[1]; clinical strain 66 (Table S2), read-out: MIC
  MIC: 0.8 µg/mL (≈ 2.37 µM)
[1]; clinical strain 67 (Table S2), read-out: MIC
  MIC: 1.6 µg/mL (≈ 4.74 µM)
[1]; clinical strain 68 (Table S2), read-out: MIC
  MIC: 1.6 µg/mL (≈ 4.74 µM)
[1]; clinical strain 69 (Table S2), read-out: MIC
  MIC: 1.6 µg/mL (≈ 4.74 µM)
[1]; clinical strain 70 (Table S2), read-out: MIC
  MIC: 1.6 µg/mL (≈ 4.74 µM)
[1]; clinical strain 71 (Table S2), read-out: MIC
  MIC: 1.6 µg/mL (≈ 4.74 µM)
[1]; clinical strain 72 (Table S2), read-out: MIC
  MIC: 1.6 µg/mL (≈ 4.74 µM)
[1]; clinical strain 73 (Table S2), read-out: MIC
  MIC: 1.6 µg/mL (≈ 4.74 µM)
[1]; clinical strain 74 (Table S2), read-out: MIC
  MIC: 1.6 µg/mL (≈ 4.74 µM)
[1]; clinical strain 75 (Table S2), read-out: MIC
  MIC: 1.6 µg/mL (≈ 4.74 µM)
[1]; clinical strain 76 (Table S2), read-out: MIC
  MIC: 1.6 µg/mL (≈ 4.74 µM)
[1]; clinical strain 77 (Table S2), read-out: MIC
  MIC: 1.6 µg/mL (≈ 4.74 µM)
[1]; clinical strain 78 (Table S2), read-out: MIC
  MIC: 3.12 µg/mL (≈ 9.26 µM)
[1]; clinical strain 79 (Table S2), read-out: MIC
  MIC: 12.5 µg/mL (≈ 37.1 µM)
[1]; clinical strain 80 (Table S2), read-out: MIC
  MIC: 25 µg/mL (≈ 74.1 µM)
[1]; clinical strain 81 (Table S2), read-out: MIC
  MIC: 50 µg/mL (≈ 148 µM)
[1]; mean of MIC values against clinical MDR-SE isolates, read-out: mean MIC
  MIC: 2.3 µg/mL (≈ 6.82 µM)
[1]; 81 clinical strains, concentration inhibiting growth of 50% clinical isolates
  MIC50: 0.8 µg/mL (≈ 2.37 µM)
[1]; 81 clinical strains, concentration inhibiting growth of 90% of clinical isolates
  MIC90: 1.6 µg/mL (≈ 4.74 µM)
[2]
  MIC: 1.6 µg/mL (≈ 4.74 µM)
[3]
  MIC: 1.6 µg/mL (≈ 4.74 µM)
